Assay results taken from patent US20180071242A1, “SUBSTITUTED ACYLANILIDES AND METHODS OF USE THEREOF” (University of Tennessee Research Foundation, priority 2006, published 2018).

Columns and labels:
[1] = tested on: orchidectomized (ORX) male Sprague-Dawley rats; assay: Anabolic and androgenic activity in castrated (ORX) male rats; format: in vivo, rat; settings: maximally stimulated
Procedure: Anabolic and androgenic efficacy of compound of formula (I) administered by daily oral gavage were tested. The S-isomer of compound (I) [S-(I)] was synthesized and tested as described herein.
The test article for this study was weighed and dissolved in 10% DMSO (Fischer) diluted with PEG 300 (Acros Organics, NJ) for preparation of the appropriate dosage concentrations. The animals were housed in groups of 2 to 3 animals per cage. Animals were randomly assigned to one of seven groups consisting of 4 to 5 animals per group. Control groups (intact and ORX) were administered vehicle daily. S-(I) was administered via oral gavage at doses of 0.01, 0.03, 0.1, 0.3, 0.75, and 1 mg/day to both intact and ORX groups. Where appropriate, animals were castrated on day one of the study. Treatment with S-(I) began nine days post ORX and was administered daily via oral gavage for fourteen days.
The animals were sacrificed under anesthesia (ketamine/xyalzine, 87:13 mg/kg) and body weights were recorded. In addition, ventral prostate, seminal vesicles, and levator ani muscle were removed, individually weighed, normalized to body weight, and expressed as a percentage of intact control. Student's T-test was used to compare individual dose groups to the intact control group. Significance was defined a priori as a P-value <0.05. Ventral prostate and seminal vesicle weights were evaluated as a measure of androgenic activity, whereas levator ani muscle weight was evaluated as a measure of anabolic activity. Blood was collected from the abdominal aorta, centrifuged, and sera were frozen at −80° C. prior to determination of serum hormone levels. Serum luteinizing hormone (LH) and follicle stimulating hormone (FSH) concentrations were determined.

GR = target: T1, GR (Rattus norvegicus, UniProt P06536); assay: Transient transfection luciferase transactivation assay in HEK-293 cells; format: cell-based; settings: 1 nM
T1 construct: expressed in transfected cells; host or cells: HEK-293
T1 sequence (P06536 1-795): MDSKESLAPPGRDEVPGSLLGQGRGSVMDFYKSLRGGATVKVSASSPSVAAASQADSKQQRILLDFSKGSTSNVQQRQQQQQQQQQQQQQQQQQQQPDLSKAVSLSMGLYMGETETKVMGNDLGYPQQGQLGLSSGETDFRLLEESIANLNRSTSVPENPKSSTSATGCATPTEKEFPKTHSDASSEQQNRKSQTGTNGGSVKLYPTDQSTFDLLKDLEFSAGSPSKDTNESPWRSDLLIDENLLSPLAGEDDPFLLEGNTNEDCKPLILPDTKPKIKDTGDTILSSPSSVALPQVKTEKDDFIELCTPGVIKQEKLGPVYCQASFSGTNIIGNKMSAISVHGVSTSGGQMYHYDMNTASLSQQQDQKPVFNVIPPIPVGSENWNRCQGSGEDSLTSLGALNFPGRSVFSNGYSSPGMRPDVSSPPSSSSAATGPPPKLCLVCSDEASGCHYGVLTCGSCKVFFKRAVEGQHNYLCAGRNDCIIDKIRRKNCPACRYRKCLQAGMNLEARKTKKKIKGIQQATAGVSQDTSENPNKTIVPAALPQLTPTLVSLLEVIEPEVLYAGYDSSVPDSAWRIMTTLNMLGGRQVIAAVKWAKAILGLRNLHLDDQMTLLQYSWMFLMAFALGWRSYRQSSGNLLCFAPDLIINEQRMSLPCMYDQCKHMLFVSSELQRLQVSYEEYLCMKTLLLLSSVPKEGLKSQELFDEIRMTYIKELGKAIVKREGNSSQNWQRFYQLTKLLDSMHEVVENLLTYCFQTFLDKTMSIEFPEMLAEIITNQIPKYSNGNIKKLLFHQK

MR = target: T2, MR (Rattus norvegicus, UniProt P22199); assay: as above; format: cell-based; settings: 1 nM
T2 construct: expressed in transfected cells; host or cells: HEK-293
T2 sequence (P22199 1-981): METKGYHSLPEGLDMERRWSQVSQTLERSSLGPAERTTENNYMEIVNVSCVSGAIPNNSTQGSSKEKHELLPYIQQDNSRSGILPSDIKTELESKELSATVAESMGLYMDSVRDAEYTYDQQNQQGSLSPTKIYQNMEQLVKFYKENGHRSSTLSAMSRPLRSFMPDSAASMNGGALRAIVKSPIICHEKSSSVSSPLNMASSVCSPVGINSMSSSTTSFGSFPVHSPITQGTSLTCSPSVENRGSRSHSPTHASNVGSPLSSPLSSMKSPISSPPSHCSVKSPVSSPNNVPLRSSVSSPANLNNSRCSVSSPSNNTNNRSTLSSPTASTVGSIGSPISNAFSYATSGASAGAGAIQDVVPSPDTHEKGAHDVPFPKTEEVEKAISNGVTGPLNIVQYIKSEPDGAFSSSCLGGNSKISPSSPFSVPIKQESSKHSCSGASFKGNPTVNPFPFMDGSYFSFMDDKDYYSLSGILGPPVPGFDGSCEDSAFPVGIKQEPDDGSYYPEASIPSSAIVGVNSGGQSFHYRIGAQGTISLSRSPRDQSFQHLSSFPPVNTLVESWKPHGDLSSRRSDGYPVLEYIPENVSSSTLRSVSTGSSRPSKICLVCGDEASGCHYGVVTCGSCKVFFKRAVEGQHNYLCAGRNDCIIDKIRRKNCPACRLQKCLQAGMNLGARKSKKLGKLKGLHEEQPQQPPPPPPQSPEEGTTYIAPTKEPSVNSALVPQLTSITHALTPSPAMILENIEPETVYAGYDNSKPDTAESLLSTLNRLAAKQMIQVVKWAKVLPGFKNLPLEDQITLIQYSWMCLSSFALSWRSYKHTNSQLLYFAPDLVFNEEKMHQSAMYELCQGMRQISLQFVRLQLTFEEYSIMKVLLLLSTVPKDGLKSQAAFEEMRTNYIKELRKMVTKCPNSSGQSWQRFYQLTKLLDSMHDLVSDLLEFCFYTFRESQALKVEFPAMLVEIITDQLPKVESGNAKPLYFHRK

[2] = tested on: DMD (−/−) UTRN (−/−) mice; assay: Double knockout mouse model of Duchenne muscular dystrophy; settings: 10 mg/kg/day, data cumulative across the SARM groups
PR = target: T3, PR (Rattus norvegicus, UniProt Q63449); assay: Transient transfection luciferase transactivation assay in HEK-293 cells; format: cell-based; settings: 1 nM
T3 construct: expressed in transfected cells; host or cells: HEK-293
T3 sequence (Q63449 1-923): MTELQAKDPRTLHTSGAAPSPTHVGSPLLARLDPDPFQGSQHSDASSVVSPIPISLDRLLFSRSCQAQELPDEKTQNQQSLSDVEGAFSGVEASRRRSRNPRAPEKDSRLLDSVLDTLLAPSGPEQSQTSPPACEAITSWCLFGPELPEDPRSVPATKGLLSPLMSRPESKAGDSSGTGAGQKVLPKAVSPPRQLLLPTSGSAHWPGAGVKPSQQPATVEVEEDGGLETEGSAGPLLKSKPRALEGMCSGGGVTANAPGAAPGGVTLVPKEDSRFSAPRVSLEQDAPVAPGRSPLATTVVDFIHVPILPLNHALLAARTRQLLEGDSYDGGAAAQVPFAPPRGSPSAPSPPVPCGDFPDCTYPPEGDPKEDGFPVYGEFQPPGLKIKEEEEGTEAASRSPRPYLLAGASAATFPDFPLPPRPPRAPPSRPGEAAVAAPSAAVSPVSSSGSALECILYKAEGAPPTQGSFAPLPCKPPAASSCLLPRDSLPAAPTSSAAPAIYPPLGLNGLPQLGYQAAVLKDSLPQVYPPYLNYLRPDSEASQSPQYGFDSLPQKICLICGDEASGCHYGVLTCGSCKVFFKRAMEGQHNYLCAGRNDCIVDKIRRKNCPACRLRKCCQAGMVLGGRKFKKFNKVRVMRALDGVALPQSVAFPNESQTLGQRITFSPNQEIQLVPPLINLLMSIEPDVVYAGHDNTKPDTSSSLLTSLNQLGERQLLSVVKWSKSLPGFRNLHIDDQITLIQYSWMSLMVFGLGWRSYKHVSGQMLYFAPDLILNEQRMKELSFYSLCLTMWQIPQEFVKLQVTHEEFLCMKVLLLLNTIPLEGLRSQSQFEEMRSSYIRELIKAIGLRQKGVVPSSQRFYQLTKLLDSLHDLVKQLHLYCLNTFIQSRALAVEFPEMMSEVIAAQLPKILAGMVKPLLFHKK

CYP2C9 = target: T4, CYP2C9 (Homo sapiens, UniProt P11712); assay: CYP inhibition screening, recombinant enzyme (fluorescent-based) assay; format: in vitro ADME; settings: human, 30 min
T4 construct: purchased Gentest, BD Biosciences
T4 sequence (P11712 whole entry): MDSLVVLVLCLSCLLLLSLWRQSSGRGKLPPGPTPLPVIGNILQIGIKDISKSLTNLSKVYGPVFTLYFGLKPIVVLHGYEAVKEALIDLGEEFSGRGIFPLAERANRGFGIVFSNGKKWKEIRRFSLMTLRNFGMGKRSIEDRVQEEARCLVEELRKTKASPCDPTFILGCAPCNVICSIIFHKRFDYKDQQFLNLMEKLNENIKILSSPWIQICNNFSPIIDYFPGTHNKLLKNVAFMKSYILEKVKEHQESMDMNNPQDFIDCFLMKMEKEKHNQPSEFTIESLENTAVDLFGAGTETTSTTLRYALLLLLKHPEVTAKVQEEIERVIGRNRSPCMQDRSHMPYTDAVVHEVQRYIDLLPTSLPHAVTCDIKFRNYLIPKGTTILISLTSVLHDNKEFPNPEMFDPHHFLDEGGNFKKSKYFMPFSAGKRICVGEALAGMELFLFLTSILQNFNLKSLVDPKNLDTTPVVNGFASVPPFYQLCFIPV

Q: `CC(=O)Nc1ccc(OC[C@](C)(O)C(=O)Nc2ccc([N+](=O)[O-])c(C(F)(F)F)c2)cc1` [S-4, S-3-(4-acetylaminophenoxy)-2-hydroxy-2-methyl-N-(4-nitro-3-trifluoromethylphenyl)propanamide, reference compound] was tested. Which “Maximal stimulation of levator ani muscle weight” value [1] did it give?
A: 101%

Q: For `C[C@@H]1C[C@H]2[C@@H]3CCC4=CC(=O)C=C[C@]4(C)[C@@]3(F)[C@@H](O)C[C@]2(C)[C@@]1(O)C(=O)CO` [dexamethasone, reference compound], which “GR activity induced by known ligand” value (GR) is on record?
A: 70 fold

Q: With `C[C@]12CCC(=O)C=C1CC[C@@H]1[C@@H]2[C@@H](O)C[C@]2(C=O)[C@@H](C(=O)CO)CC[C@@H]12` [aldosterone, reference compound] as the molecule, how does the “MR activity induced by known ligand” value (MR) read?
A: 60 fold

Q: How did the “Maximal stimulation of levator ani muscle weight” value [1] turn out when `CCC(=O)O[C@H]1CC[C@H]2[C@@H]3CCC4=CC(=O)CC[C@]4(C)[C@H]3CC[C@]12C` [Testosterone propionate, reference compound] was run?
A: 104%

Q: How did the “Ability to be ambulatory (in words)” value [2] turn out when `C[C@](O)(COc1ccc(C#N)c(F)c1)C(=O)Nc1ccc(C#N)c(C(F)(F)F)c1` [S-(V)] was run?
A: enhanced the ability of these mice to be ambulatory

Q: And the “Deterioration of body weight (in words)” value [2]?
A: delayed the deterioration

Q: What about the “Deterioration of grip strength (in words)” value [2] of the same molecule?
A: delayed the deterioration

Q: And the “Deterioration of lean mass (in words)” value [2]?
A: delayed the deterioration

Q: `C[C@](O)(COc1ccc(C#N)cc1)C(=O)Nc1ccc(C#N)c(C(F)(F)F)c1` [S-(IV)] was tested. Which “Ability to be ambulatory (in words)” value [2] did it give?
A: enhanced the ability of these mice to be ambulatory

Q: What about the “Deterioration of body weight (in words)” value [2] of the same molecule?
A: delayed the deterioration

Q: And the “Deterioration of grip strength (in words)” value [2]?
A: delayed the deterioration

Q: What about the “Deterioration of lean mass (in words)” value [2] of the same molecule?
A: delayed the deterioration

Q: `CC#C[C@]1(O)CC[C@H]2[C@@H]3CCC4=CC(=O)CCC4=C3[C@@H](c3ccc(N(C)C)cc3)C[C@@]21C` [RU486, reference compound] was tested. Which “Inhibition of PR activity, antagonist mode (in words)” value (PR) did it give?
A: completely inhibited

Q: With `Nc1ccc(S(=O)(=O)Nc2ccnn2-c2ccccc2)cc1` [Sulfaphenazole, reference compound] as the molecule, how does the “Inhibition of CYP2C9 activity (in words)” value (CYP2C9) read?
A: potently inhibited

Q: How did the “PR activity induced by known ligand” value (PR) turn out when `CC(=O)[C@H]1CC[C@H]2[C@@H]3CCC4=CC(=O)CC[C@]4(C)[C@H]3CC[C@]12C` [progesterone, reference compound] was run?
A: 23 fold
